Source: ChEMBL document CHEMBL1201862, “PubChem BioAssay data set” (2004)
Activity calls are given as the source filed them.

Assays:
[1] = target: T1, Hexokinase-1 (Homo sapiens, UniProt P19367); test: SAR analysis of small molecule inhibitors of hexokinase domain containing I (HKDC1) in the hexokinase 1 selectivity assay. [Related pubchem assays (depositor defined):AID493160, AID493190]; assay type: functional
T1 sequence (P19367 whole entry): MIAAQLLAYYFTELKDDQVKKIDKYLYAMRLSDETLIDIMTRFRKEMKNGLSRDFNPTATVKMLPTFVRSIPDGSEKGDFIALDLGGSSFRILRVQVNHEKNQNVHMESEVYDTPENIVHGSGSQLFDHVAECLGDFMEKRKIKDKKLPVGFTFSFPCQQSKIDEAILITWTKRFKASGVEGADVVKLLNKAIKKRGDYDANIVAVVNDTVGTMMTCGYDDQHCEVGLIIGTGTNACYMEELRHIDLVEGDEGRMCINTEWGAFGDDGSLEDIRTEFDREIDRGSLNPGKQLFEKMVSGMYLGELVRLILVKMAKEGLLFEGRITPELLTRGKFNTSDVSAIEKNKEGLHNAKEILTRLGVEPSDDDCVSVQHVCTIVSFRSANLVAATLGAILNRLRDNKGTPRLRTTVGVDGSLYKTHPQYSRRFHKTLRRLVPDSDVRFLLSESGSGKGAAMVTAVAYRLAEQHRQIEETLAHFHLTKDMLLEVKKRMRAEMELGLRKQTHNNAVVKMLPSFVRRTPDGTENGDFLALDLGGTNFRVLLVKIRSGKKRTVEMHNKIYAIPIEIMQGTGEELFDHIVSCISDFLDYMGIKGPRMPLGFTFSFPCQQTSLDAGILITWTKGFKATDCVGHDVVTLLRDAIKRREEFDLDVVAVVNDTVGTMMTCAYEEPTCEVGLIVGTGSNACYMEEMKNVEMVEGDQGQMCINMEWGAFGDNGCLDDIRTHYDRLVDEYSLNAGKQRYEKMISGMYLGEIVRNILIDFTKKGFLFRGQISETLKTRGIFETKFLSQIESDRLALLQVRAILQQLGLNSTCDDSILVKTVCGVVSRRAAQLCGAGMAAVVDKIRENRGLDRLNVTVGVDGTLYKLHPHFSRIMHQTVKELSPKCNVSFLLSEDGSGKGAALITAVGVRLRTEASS

[2] = target: T2, Hexokinase HKDC1 (Homo sapiens, UniProt Q2TB90); test: SAR analysis of small molecule inhibitors of hexokinase domain containing I (HKDC1). [Related pubchem assays (depositor defined):AID493160, AID493190]; assay type: functional
T2 sequence (Q2TB90 whole entry): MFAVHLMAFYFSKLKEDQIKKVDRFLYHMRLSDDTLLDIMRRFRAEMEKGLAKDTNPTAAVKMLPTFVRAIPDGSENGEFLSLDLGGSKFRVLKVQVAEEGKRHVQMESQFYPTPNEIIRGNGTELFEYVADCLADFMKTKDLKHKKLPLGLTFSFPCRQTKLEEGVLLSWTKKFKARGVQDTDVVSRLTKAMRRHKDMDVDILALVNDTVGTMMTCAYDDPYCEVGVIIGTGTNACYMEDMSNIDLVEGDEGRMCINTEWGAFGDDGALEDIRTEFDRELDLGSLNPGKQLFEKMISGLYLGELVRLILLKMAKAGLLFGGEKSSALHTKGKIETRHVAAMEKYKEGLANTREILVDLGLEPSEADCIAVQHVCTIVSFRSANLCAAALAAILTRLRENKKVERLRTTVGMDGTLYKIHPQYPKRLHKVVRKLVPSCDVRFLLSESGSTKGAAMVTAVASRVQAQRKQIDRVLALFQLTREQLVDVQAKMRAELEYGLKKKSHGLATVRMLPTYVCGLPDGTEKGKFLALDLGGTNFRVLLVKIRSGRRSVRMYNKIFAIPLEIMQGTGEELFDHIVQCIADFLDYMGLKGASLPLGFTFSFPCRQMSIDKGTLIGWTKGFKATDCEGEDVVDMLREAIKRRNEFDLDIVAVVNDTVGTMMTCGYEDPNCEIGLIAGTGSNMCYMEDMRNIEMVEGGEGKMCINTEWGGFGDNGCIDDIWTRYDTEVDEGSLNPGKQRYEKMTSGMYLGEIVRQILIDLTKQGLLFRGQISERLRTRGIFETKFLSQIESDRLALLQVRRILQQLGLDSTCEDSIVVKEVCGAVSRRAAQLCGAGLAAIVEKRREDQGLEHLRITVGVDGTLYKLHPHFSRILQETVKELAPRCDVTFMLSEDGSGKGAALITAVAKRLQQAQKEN

[3] = target: T3, Acyl-homoserine lactone acylase PvdQ (Pseudomonas aeruginosa (strain LESB58), UniProt Q9I194); test: P. aeruginosa PvdQ acylase inhibitors, dose response, biochemical, fluorescence, plate reader and imaging, cherry-picks (AID 493231)
T3 sequence (Q9I194 whole entry): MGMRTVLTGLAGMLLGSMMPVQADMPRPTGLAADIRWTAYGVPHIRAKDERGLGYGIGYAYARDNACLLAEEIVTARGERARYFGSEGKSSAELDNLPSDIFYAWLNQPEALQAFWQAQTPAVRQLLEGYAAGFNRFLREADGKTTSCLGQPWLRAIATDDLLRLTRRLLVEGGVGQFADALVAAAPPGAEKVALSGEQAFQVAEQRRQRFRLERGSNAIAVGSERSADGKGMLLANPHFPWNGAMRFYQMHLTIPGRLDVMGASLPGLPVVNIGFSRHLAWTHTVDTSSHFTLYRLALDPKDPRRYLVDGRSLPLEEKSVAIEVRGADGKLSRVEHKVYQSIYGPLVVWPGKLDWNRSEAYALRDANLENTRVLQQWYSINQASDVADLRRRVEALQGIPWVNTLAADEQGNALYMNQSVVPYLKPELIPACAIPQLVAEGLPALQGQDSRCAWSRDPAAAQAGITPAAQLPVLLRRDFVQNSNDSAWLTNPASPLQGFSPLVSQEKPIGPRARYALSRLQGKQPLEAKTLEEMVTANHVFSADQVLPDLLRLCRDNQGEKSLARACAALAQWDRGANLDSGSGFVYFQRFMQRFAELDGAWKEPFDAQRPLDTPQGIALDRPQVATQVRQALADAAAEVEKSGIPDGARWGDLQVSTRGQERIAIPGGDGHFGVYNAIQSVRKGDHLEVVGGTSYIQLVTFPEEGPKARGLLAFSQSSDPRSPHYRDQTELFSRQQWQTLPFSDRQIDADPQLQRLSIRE

[4] = target: T4, Endoribonuclease toxin MazF (Escherichia coli K-12, UniProt P0AE70); test: MazF toxin RNase activators, dose response, biochemical, fluorescence, single-stranded RNA substrate, uHTS hits (AID 588481); assay type: functional
T4 sequence (P0AE70 whole entry): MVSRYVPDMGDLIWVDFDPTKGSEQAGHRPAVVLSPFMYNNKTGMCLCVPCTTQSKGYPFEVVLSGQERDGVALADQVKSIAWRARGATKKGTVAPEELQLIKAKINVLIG

[5] = tested on: HeLa; test: HeLa cell cytotoxicity, dose response, cytotoxicity control, 48 h, plate reader, cherry-picks (AID 504942); assay type: functional, cell-based; details: Homo sapiens
[6] = target: T4, Endoribonuclease toxin MazF; test: fluorescent RNA oligo signal without MazF, dose response, counter-screen for MazEF activator project, biochemical, fluorescence, single-stranded RNase substrate (AID 588502); assay type: functional
[7] = target: T5, Protein skinhead-1 (Caenorhabditis elegans, UniProt P34707); assay type: functional
T5 sequence (P34707 whole entry): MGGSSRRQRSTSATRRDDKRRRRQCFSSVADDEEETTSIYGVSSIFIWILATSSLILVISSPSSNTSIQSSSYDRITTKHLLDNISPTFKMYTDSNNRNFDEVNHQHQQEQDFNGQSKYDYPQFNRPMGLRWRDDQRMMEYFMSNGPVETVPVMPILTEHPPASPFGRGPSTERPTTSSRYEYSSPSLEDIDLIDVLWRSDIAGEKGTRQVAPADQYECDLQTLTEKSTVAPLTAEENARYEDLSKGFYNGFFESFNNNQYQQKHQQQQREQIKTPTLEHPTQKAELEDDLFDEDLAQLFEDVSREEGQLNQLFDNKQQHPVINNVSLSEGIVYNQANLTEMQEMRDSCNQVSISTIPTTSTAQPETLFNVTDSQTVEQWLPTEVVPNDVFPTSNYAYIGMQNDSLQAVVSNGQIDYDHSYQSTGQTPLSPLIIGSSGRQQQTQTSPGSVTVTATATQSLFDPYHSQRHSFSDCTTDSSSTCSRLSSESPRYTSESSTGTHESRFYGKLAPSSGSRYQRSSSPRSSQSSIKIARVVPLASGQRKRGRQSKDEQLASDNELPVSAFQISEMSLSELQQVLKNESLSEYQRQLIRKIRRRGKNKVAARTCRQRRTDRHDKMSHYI

[8] = Luminescence-based cell-based high throughput dose response assay to identify activators of the DAF-12 from the parasite S. stercoralis (ssDAF-12).; assay type: functional
[9] = target: T6, Oxysterols receptor LXR-beta (Homo sapiens, UniProt P55055); test: LXR agonists, Gal4 luciferase reporter, dose response, counter-screen for ssDAF-12 agonist project, cell-based, luminescence, HEK293, S. stercoralis campaign (AID 720737); assay type: functional; details: read-out: IC50 (the source's name)
T6 sequence (P55055 whole entry): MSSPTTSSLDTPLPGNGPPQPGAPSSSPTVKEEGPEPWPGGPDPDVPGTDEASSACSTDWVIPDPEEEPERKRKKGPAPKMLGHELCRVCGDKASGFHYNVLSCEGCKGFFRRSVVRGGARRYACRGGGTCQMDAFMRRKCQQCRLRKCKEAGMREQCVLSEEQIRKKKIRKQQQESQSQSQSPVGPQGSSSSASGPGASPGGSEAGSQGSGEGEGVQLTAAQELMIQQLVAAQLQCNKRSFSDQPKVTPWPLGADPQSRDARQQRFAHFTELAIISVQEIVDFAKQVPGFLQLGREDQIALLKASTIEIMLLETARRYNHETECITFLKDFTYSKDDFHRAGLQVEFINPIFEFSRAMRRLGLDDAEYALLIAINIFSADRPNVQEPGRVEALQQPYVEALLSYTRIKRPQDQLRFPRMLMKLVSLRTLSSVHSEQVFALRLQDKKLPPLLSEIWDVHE

Structure (SMILES) | IC50 [1] | IC50 [2] | AC50 [3] | EC50 [4] | AC50 [5] | EC50 [6] | IC50 [7] | IC50 [8] | EC50 [9]
Cc1cccc(/C=C/c2nc3ccccc3c(=O)n2Cc2ccccc2)c1 | > 80 µM (inactive) | > 80 µM (inactive) | – | – | – | – | – | – | –
N#C/C(=C/c1ccco1)c1nc2ccccc2s1 | – | – | 12.5 µM (active) | 23.7 µM (inactive) | 53.7 µM (active) | 54.8 µM (inactive) | > 100 µM (inactive) | > 67.5 µM (inactive) | > 67.5 µM (inactive)
